{"source": "patent US11981661B2", "about": "“Heterocyclic compounds” (Hoffmann-La Roche Inc., priority 2020, dated 2024)", "note": "pIC50: −log10 of the molar value.", "data": [{"molecular_target": "T1, MAGL (Homo sapiens, UniProt Q99685)", "T1 sequence (Q99685 1-303)": "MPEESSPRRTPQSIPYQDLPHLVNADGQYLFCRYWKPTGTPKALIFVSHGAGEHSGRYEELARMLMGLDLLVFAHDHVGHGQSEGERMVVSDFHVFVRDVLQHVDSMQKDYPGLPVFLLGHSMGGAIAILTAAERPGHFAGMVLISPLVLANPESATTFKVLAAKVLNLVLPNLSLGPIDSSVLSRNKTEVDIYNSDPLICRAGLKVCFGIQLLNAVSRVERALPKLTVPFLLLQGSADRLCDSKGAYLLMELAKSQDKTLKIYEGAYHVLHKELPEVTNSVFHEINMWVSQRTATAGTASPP", "test": "2-AG assay (MAGL inhibitory activity, hydrolysis of 2-arachidonoylglycerol followed by mass spectrometry)", "format": "biochemical", "settings": "50 pM MAGL, 8 μM 2-arachidonoylglycerol, 15 min preincubation, 30 min incubation at RT, concentration range 12.5 μM to 0.8 pM", "procedure": "Compounds were profiled for MAGL inhibitory activity by determining the enzymatic activity by following the hydrolysis of the natural substrate 2-arachidonoylglycerol resulting in arachidonic acid, which can be followed by mass spectrometry. This assay is hereinafter abbreviated “2-AG assay”.\nThe 2-AG assay was carried out in 384 well assay plates (PP, Greiner Cat #784201) in a total volume of 20 μL. Compound dilutions were made in 100% DMSO (VWR Chemicals 23500.297) in a polypropylene plate in 3-fold dilution steps to give a final concentration range in the assay from 12.5 μM to 0.8 pM. 0.25 μL compound dilutions (100% DMSO) were added to 9 μL MAGL in assay buffer (50 mM TRIS (GIBCO, 15567-027), 1 mM EDTA (Fluka, 03690-100 mL), 0.01% (v/v) Tween. After shaking, the plate was incubated for 15 min at RT. To start the reaction, 10 μL 2-arachidonoylglycerol in assay buffer was added. The final concentrations in the assay was 50 pM MAGL and 8 μM 2-arachidonoylglyerol. After shaking and 30 min incubation at RT, the reaction was quenched by the addition of 40 μL of ACN containing 4 μM of d8-arachidonic acid. The amount of arachidonic acid was traced by an online SPE system (Agilent Rapidfire) coupled to a triple quadrupole mass spectrometer (Agilent 6460). A C18 SPE cartridge (G9205A) was used in an ACN/water liquid setup. The mass spectrometer was operated in negative electrospray mode following the mass transitions 303.1→259.1 for arachidonic acid and 311.1→267.0 for d8-arachidonic acid. The activity of the compounds was calculated based on the ratio of intensities [arachidonic acid/d8-arachidonic acid].", "values": [{"molecule": "CC1(CCC(=O)N2CC(OCc3ccc(C(F)(F)F)cc3F)C2)CCC(=O)N1", "note": "(stereo not drawn) [Example 14, (+)- or (−)-5-[3-[3-[[2-Fluoro-4-(trifluoromethyl)phenyl]methoxy]azetidin-1-yl]-3-oxo-propyl]-5-methyl-pyrrolidin-2-one]", "pIC50": 5.68}, {"molecule": "O=C1N[C@H](CCC(=O)N2CC3(CC(Oc4cncc(C(F)(F)F)n4)C3)C2)CO1", "note": "[Example 32, (4R)-4-[3-Oxo-3-[6-[6-(trifluoromethyl)pyrazin-2-yl]oxy-2-azaspiro[3.3]heptan-2-yl]propyl]oxazolidin-2-one]", "pIC50": 7.77}, {"molecule": "CS(=O)(=O)c1cc(F)cc(CC2CC3(C2)CN(C(=O)CC[C@@H]2COC(=O)N2)C3)c1", "note": "[Example 184, (4R)-4-[3-[6-[(3-Fluoro-5-methylsulfonyl-phenyl)methyl]-2-azaspiro[3.3]heptan-2-yl]-3-oxo-propyl]oxazolidin-2-one]", "pIC50": 7.23}, {"molecule": "O=C1N[C@H](CCC(=O)N2CC(OCc3cccc(S(=O)(=O)C(F)(F)F)c3)C2)CO1", "note": "[Example 167, (4R)-4-[3-Oxo-3-[3-[[3-(trifluoro-methylsulfonyl)phenyl]methoxy]azetidin-1-yl]propyl]oxazolidin-2-one]", "pIC50": 7.57}, {"molecule": "CS(=O)(=O)c1ccc(-c2ccc(C3CN(C(=O)CC[C@@H]4COC(=O)N4)C3)cc2)c(C(F)(F)F)c1", "note": "[Example 128, (4R)-4-[3-[3-[4-[4-Methyl-sulfonyl-2-(trifluoromethyl)phenyl]phenyl]azetidin-1-yl]-3-oxo-propyl] oxazolidin-2-one]", "pIC50": 9.59}, {"molecule": "O=C1N[C@H](CCC(=O)N2CC3(CCC(Cc4ccc(C(F)(F)F)cn4)CC3)C2)CO1", "note": "[Example 189, (4R)-4-[3-Oxo-3-[7-[[5-(trifluoro-methyl)-2-pyridyl]methyl]-2-azaspiro[3.5]nonan-2-yl]propyl] oxazolidin-2-one]", "pIC50": 7.80}, {"molecule": "O=C1N[C@H](CCC(=O)N2CC3(CC(Cc4ccc(C(F)(F)F)nn4)C3)C2)CO1", "note": "[Example 181, (4R)-4-[3-Oxo-3-[6-[[6-(trifluoro-methyl)pyridazin-3-yl]methyl]-2-azaspiro[3.3]heptan-2-yl]propyl] oxazolidin-2-one]", "pIC50": 6.64}, {"molecule": "O=C1N[C@H](CCC(=O)N2CC(c3ccc(C4(CO)CC4)cc3)C2)CO1", "note": "[Example 171, (4R)-4-[3-[3-[4-[1-(Hydroxy-methyl)cyclo-propyl]phenyl]azetidin-1-yl]-3-oxo-propyl] oxazolidin-2-one]", "pIC50": 7.68}, {"molecule": "O=C1N[C@H](CCC(=O)N2CC(c3ccc(N(CC4CC4)c4ccccc4)cc3)C2)CO1", "note": "[Example 89, (4R)-4-[3-[3-[4-[N-(Cyclopropylmethyl)anilino]phenyl]azetidin-1-yl]-3-oxo-propyl] oxazolidin-2-one]", "pIC50": 10.70}, {"molecule": "O=C1N[C@H](COC(=O)N2CC3(CC(Cc4ccc(F)cc4F)C3)C2)CO1", "note": "[Example 57, [(4S)-2-Oxooxazolidin-4-yl]methyl 6-[(2,4-difluorophenyl)methyl]-2-azaspiro[3.3]heptane-2-carboxylate]", "pIC50": 8.70}, {"molecule": "CC(C[C@@H]1COC(=O)N1)C(=O)N1CC(OCc2ccc(C(F)(F)F)cc2F)C1", "note": "(stereo partly drawn) [Example 35, (4R)-4-[3-[3-[[2-Fluoro-4-(trifluoromethyl)phenyl]methoxy]azetidin-1-yl]-2-methyl-3-oxo-propyl]oxazolidin-2-one]", "pIC50": 7.89}, {"molecule": "O=C1N[C@H](CCC(=O)N2CC3(C2)CN(S(=O)(=O)c2ccc(C(F)(F)F)cc2)C3)CO1", "note": "[Example 147, (4R)-4-[3-Oxo-3-[2-[4-(trifluoromethyl)phenyl]sulfonyl-2,6-diazaspiro [3.3]heptan-6-yl]propyl] oxazolidin-2-one]", "pIC50": 5.64}, {"molecule": "CN(CCc1cnn[nH]1)C(=O)N1CC(c2ccc(C3(C(F)(F)F)CC3)cc2)C1", "note": "[Example 65, N-Methyl-N-[2-(1H-triazol-5-yl)ethyl]-3-[4-[1-(trifluoromethyl)cyclopropyl]phenyl] azetidine-1-carboxamide]", "pIC50": 8.70}, {"molecule": "O=C1N[C@H](CCC(=O)N2CC(c3ccc(NCC4(C(F)(F)F)CC4)cn3)C2)CO1", "note": "[Example 175, (4R)-4-[3-Oxo-3-[3-[5-[[1-(trifluoromethyl)cyclopropyl]methylamino]-2-pyridyl]azetidin-1-yl]propyl]oxazolidin-2-one]", "pIC50": 7.77}, {"molecule": "CS(=O)(=O)c1ccc(CC2CC3(C2)CN(C(=O)CC[C@@H]2COC(=O)N2)C3)cc1", "note": "[Example 180, (4R)-4-[3-[6-[(4-Methyl-sulfonylphenyl)methyl]-2-azaspiro[3.3]heptan-2-yl]-3-oxo-propyl]oxazolidin-2-one]", "pIC50": 7.03}, {"molecule": "CC1(CCC(=O)N2CC(c3ccc(C4(C(F)(F)F)CC4)cc3)C2)CCC(=O)N1", "note": "(single isomer, unassigned) [Example 15, (−)- or (+)-5-Methyl-5-[3-oxo-3-[3-[4-[1-(trifluoromethyl)cyclopropyl]phenyl]azetidin-1-yl]propyl]pyrrolidin-2-one]", "pIC50": "≤ 4.90"}, {"molecule": "CC1(CCC(=O)N2CC(OCc3ccc(C(F)(F)F)cc3F)C2)CCC(=O)N1", "note": "(single isomer, unassigned) [Example 13, (−)- or (+)-5-[3-[3-[[2-Fluoro-4-(trifluoromethyl)phenyl]methoxy]azetidin-1-yl]-3-oxo-propyl]-5-methyl-pyrrolidin-2-one]", "pIC50": "≤ 4.90"}, {"molecule": "CN(c1ccccc1)c1ccc(C2CN(C(=O)CC[C@@H]3COC(=O)N3)C2)cc1", "note": "[Example 71, (4R)-4-[3-[3-[4-(N-Methylanilino)phenyl]azetidin-1-yl]-3-oxo-propyl]oxazolidin-2-one]", "pIC50": 9.00}, {"molecule": "O=C1N[C@H](CCC(=O)N2CC3(CCN(Cc4ccc(C(F)(F)F)cc4F)CC3)C2)CO1", "note": "[Example 126, (4R)-4-[3-[7-[[2-Fluoro-4-(trifluoro-methyl)phenyl]methyl]-2,7-diazaspiro[3.5]nonan-2-yl]-3-oxo-propyl] oxazolidin-2-one]", "pIC50": 7.60}, {"molecule": "N#CCS(=O)(=O)c1ccc(C2CN(C(=O)CC[C@@H]3COC(=O)N3)C2)cc1", "note": "[Example 75, 2-[4-[1-[3-[(4R)-2-Oxooxazolidin-4-yl]propanoyl]azetidin-3-yl]phenyl]sulfonyl-acetonitrile]", "pIC50": 7.24}, {"molecule": "O=C1CSC[C@H](CCC(=O)N2CC(OCc3ccc(C(F)(F)F)cc3F)C2)N1", "note": "[Example 88, (5S)-5-[3-[3-[[2-Fluoro-4-(trifluoromethyl)phenyl]methoxy]azetidin-1-yl]-3-oxo-propyl]thiomorpholin-3-one]", "pIC50": 5.89}, {"molecule": "O=C1N[C@H](CCC(=O)N2CC(c3ccc(N4CCC(O)(C(F)(F)F)C4)nc3)C2)CO1", "note": "(stereo partly drawn) [Example 205, (+)- or (−)-(4R)-4-[3-[3-[6-[3-Hydroxy-3-(trifluoromethyl)pyrrolidin-1-yl]-3-pyridyl]azetidin-1-yl]-3-oxo-propyl]oxazolidin-2-one]", "pIC50": 6.77}, {"molecule": "O=C1N[C@H](CCC(=O)N2CC(c3cnc(N4CC5(CCCC5)C4)cn3)C2)CO1", "note": "[Example 140, (4R)-4-[3-[3-[5-(2-Azaspiro[3.4]octan-2-yl)pyrazin-2-yl]azetidin-1-yl]-3-oxo-propyl]oxazolidin-2-one]", "pIC50": 7.55}, {"molecule": "O=C1N[C@H](CCC(=O)N2CC(NCc3ccc(C(F)(F)F)cc3)C2)CO1", "note": "[Example 155, (4R)-4-[3-Oxo-3-[3-[[4-(trifluoromethyl)phenyl]methyl-amino]azetidin-1-yl]propyl] oxazolidin-2-one]", "pIC50": 6.55}, {"molecule": "O=C1N[C@H](CCC(=O)N2CC3(CCC(Cc4ccc(C(F)(F)F)nc4)C3)C2)CO1", "note": "(stereo partly drawn) [Example 198, (4R)-4-[3-Oxo-3-[6-[[6-(trifluoro-methyl)-3-pyridyl]methyl]-2-azaspiro[3.4]octan-2-yl]propyl]oxazolidin-2-one]", "pIC50": 7.14}, {"molecule": "O=C1N[C@H](CCC(=O)N2CC3(CC(Cc4cccc(S(=O)(=O)C(F)(F)F)c4)C3)C2)CO1", "note": "[Example 186, (4R)-4-[3-Oxo-3-[6-[[3-(trifluoro-methylsulfonyl)phenyl]methyl]-2-azaspiro[3.3]heptan-2-yl]propyl] oxazolidin-2-one]", "pIC50": 8.70}, {"molecule": "O=C1N[C@H](CCC(=O)N2CC3(CCN(Cc4ccc(S(=O)(=O)C(F)(F)F)cc4)CC3)C2)CO1", "note": "[Example 194, (4R)-4-[3-Oxo-3-[7-[[4-(trifluoro-methylsulfonyl)phenyl]methyl]-2,7-diazaspiro[3.5]nonan-2-yl]propyl] oxazolidin-2-one]", "pIC50": 7.21}, {"molecule": "O=C1NCC(CCC(=O)N2CC3(CC(Cc4ccc(C(F)(F)F)nc4)C3)C2)N1", "note": "(centres unmarked) [Example 213, 4-[3-Oxo-3-[6-[[6-(trifluoromethyl)-3-pyridyl]methyl]-2-azaspiro[3.3]heptan-2-yl]propyl]imidazolidin-2-one]", "pIC50": 5.65}, {"molecule": "O=C1N[C@H](CCC(=O)N2CC(c3ccc([C@H]4CC[C@H](C(F)(F)F)CC4)nc3)C2)CO1", "note": "(single isomer, unassigned) [Example 201]", "pIC50": 8.05}]}]}
